Assay results: patent publication US9833497B2, “Human originated EGF domain proteins and use of the same” (CHENGDU SOURCEBIO LIMITED-LIABILITY COMPANY, priority 2013, dated 2017)

Legend:
Format in all cases: cell-based
Moraxella catarrhalis = test: MIC against Gram-negative bacteria: Moraxella catarrhalis; conditions: 5×10^5 CFU/mL
Summary of the method: (§1)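 Antibacterial activity of purified human EGF domain proteins: two-fold concentration series, triplicate wells, LB broth, 5×10^5 CFU/mL bacteria, 37° C shaking incubation. The lowest concentration without growth defines the MIC.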

Aeromonas hydrophila = test: MIC against Gram-negative bacteria: Aeromonas hydrophila; conditions: 5×10^5 CFU/mL
Summary of the method: as §1

Citrobacter diversus = test: MIC against Gram-negative bacteria: Citrobacter diversus; conditions: 5×10^5 CFU/mL
Summary of the method: as §1

Proteus vulgaris = test: MIC against Gram-negative bacteria: Proteus vulgaris; conditions: 5×10^5 CFU/mL
Summary of the method: as §1

Klebsiella pneumonia = test: MIC against Gram-negative bacteria: Klebsiella pneumonia; conditions: 5×10^5 CFU/mL
Summary of the method: as §1

E. coli BL21 = test: MIC against Gram-negative bacteria: E. coli BL21; conditions: 5×10^5 CFU/mL
Summary of the method: as §1

Pseudomonas aeruginosa = test: MIC against Gram-negative bacteria: Pseudomonas aeruginosa; conditions: 5×10^5 CFU/mL
Summary of the method: as §1

Proteus mirabilis = test: MIC against Gram-negative bacteria: Proteus mirabilis; conditions: 5×10^5 CFU/mL
Summary of the method: as §1

E. coli DH5α = test: Antibacterial activity: MIC and growth curve against E. coli DH5α in 96-well plate; conditions: minimal inhibitory concentration against E. coli DH5α; 96-well plate, 5×10^5 CFU/mL, 37° C., judged after 8 h
Summary of the method: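 MIC taken as lowest protein level with no bacterial growth, tracked by A600 every 30 min during 37 °C, 175 rpm culture. Two-fold protein series 50-12.5 μg/mL final, triplicate wells, against 5×10^5 CFU/mL of LB-washed mid-log cells.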

Enterobacter cloacae = test: MIC against Gram-negative bacteria: Enterobacter cloacae; conditions: 5×10^5 CFU/mL
Summary of the method: as §1

Serratia marcescens = test: MIC against Gram-negative bacteria: Serratia marcescens; conditions: 5×10^5 CFU/mL
Summary of the method: as §1

[1] = 10 h cultivation at 37° C., two-fold serial dilution

| Substance | MIC M. catarrhalis (Moraxella catarrhalis; [1]) [µg/mL] | MIC A. hydrophila (Aeromonas hydrophila; [1]) [µg/mL] | MIC C. diversus (Citrobacter diversus; [1]) [µg/mL] | MIC P. vulgaris (Proteus vulgaris; [1]) [µg/mL] | MIC K. pneumonia (Klebsiella pneumonia; [1]) [µg/mL] | MIC E. coli BL21 (E. coli BL21; [1]) [µg/mL] | MIC P. aeruginosa (Pseudomonas aeruginosa; [1]) [µg/mL] | MIC P. mirabilis (Proteus mirabilis; [1]) [µg/mL] | MIC (E. coli DH5α) [µg/mL] | MIC E. cloacae (Enterobacter cloacae; [1]) [µg/mL] | MIC S. marcescens (Serratia marcescens; [1]) [µg/mL] | MIC (μg/mL) M. catarrhalis (Moraxella catarrhalis; 10 h cultivation at 37° C.) [µg/mL] | MIC (μg/mL) A. hydrophila (Aeromonas hydrophila; 10 h cultivation at 37° C.) [µg/mL] | MIC (μg/mL) C. diversus (Citrobacter diversus; 10 h cultivation at 37° C.) [µg/mL] | MIC (μg/mL) P. vulgaris (Proteus vulgaris; 10 h cultivation at 37° C.) [µg/mL] | MIC (μg/mL) K. pneumonia (Klebsiella pneumonia; 10 h cultivation at 37° C.) [µg/mL] | MIC (μg/mL) E. coli BL21 (E. coli BL21; 10 h cultivation at 37° C.) [µg/mL] | MIC (μg/mL) P. aeruginosa (Pseudomonas aeruginosa; 10 h cultivation at 37° C.) [µg/mL] | MIC (μg/mL) P. mirabilis (Proteus mirabilis; 10 h cultivation at 37° C.) [µg/mL] | MIC (μg/mL) E. cloacae (Enterobacter cloacae; 10 h cultivation at 37° C.) [µg/mL] | also measured |
| --- | --- | --- | --- | --- | --- | --- | --- | --- | --- | --- | --- | --- | --- | --- | --- | --- | --- | --- | --- | --- | --- |
| PRT1115 (PTLPCEANPCLNGGTCRAAGGVSECICNARFSGQFCE; listed as Homo sapiens) | 12.5 | 12.5 | 12.5 | 12.5 | 50 | 25 | 12.5 | 12.5 | 50 | 12.5 | 12.5 |  |  |  |  |  |  |  |  |  |  |
| PRT650 (DIDECQQGNLCVNGQCKNTEGSFRCTCGQGYQLSAAKDQCE; listed as Homo sapiens) |  |  |  |  |  |  |  |  | 12.5 |  |  |  |  |  |  |  |  |  |  |  | MIC M. catarrhalis (Moraxella catarrhalis; 96-well plate, 37° C., 10 h): 25 µg/mL; MIC A. hydrophila (Aeromonas hydrophila; 96-well plate, 37° C., 10 h): 25 µg/mL; MIC C. diversus (Citrobacter diversus; 96-well plate, 37° C., 10 h): 12.5 µg/mL; MIC P. vulgaris (Proteus vulgaris; 96-well plate, 37° C., 10 h): 12.5 µg/mL; MIC K. pneumonia (Klebsiella pneumonia; 96-well plate, 37° C., 10 h): 12.5 µg/mL; MIC E. coli BL21 (E. coli BL21; 96-well plate, 37° C., 10 h): 25 µg/mL; MIC P. aeruginosa (Pseudomonas aeruginosa; 96-well plate, 37° C., 10 h): 50 µg/mL; MIC P. mirabilis (Proteus mirabilis; 96-well plate, 37° C., 10 h): 50 µg/mL; MIC E. cloacae (Enterobacter cloacae; 96-well plate, 37° C., 10 h): 50 µg/mL; MIC S. marcescens (Serratia marcescens; 96-well plate, 37° C., 10 h): 50 µg/mL |
| PRT542 (CRCDIGGALGQSCEPRTGVCRC; listed as Homo sapiens) |  |  |  |  |  |  |  |  | 25 |  |  |  |  |  |  |  |  |  |  |  | MIC against M. catarrhalis (Moraxella catarrhalis; 96-well plate, 37° C., 10 h): 12.5 µg/mL; MIC against A. hydrophila (Aeromonas hydrophila; 96-well plate, 37° C., 10 h): 12.5 µg/mL; MIC against C. diversus (Citrobacter diversus; 96-well plate, 37° C., 10 h): 50 µg/mL; MIC against P. vulgaris (Proteus vulgaris; 96-well plate, 37° C., 10 h): 12.5 µg/mL; MIC against K. pneumonia (Klebsiella pneumonia; 96-well plate, 37° C., 10 h): 50 µg/mL; MIC against E. coli BL21 (E. coli BL21; 96-well plate, 37° C., 10 h): 12.5 µg/mL; MIC against P. aeruginosa (Pseudomonas aeruginosa; 96-well plate, 37° C., 10 h): 25 µg/mL; MIC against P. mirabilis (Proteus mirabilis; 96-well plate, 37° C., 10 h): 50 µg/mL; MIC against E. cloacae (Enterobacter cloacae; 96-well plate, 37° C., 10 h): 25 µg/mL; MIC against S. marcescens (Serratia marcescens; 96-well plate, 37° C., 10 h): 50 µg/mL |
| PRT1120 (DEDECASSPCQHGGRCLQRSDPALYGGVQAAFPGAFSFRHAAGFLCHCPPGFEGADCG; listed as Homo sapiens) | 12.5 | 12.5 | 50 | 12.5 | 50 | 12.5 | 25 | 50 | 25 | 25 | 12.5 |  |  |  |  |  |  |  |  |  |  |
| PRT804 (HGAHCELRCPCQNGGTCHHITGECACPPGWTGAVCA; listed as Homo sapiens) |  |  |  |  |  |  |  |  | 12.5 |  |  | 50 | 12.5 | 12.5 | 25 | 50 | 50 | 12.5 | 12.5 | 12.5 | MIC (μg/mL) S. marcescens (Serratia marcescens; 10 h cultivation at 37° C.): 50 µg/mL |
| PRT238 (DICDPNPCENGGICLPGLADGSFSCECPDGFTDPNCS; listed as Homo sapiens) |  |  |  |  |  |  |  |  | 25 |  |  | 12.5 | 12.5 | 25 | 25 | 50 | 12.5 | 25 | 12.5 | 25 | MIC (μg/mL) S. marcescens (Serratia marcescens; 10 h cultivation at 37° C.): 12.5 µg/mL |
